In assay [1] the target is T1, Thermolysin (Bacillus thermoproteolyticus, UniProt P00800).
T1 sequence (P00800 whole entry): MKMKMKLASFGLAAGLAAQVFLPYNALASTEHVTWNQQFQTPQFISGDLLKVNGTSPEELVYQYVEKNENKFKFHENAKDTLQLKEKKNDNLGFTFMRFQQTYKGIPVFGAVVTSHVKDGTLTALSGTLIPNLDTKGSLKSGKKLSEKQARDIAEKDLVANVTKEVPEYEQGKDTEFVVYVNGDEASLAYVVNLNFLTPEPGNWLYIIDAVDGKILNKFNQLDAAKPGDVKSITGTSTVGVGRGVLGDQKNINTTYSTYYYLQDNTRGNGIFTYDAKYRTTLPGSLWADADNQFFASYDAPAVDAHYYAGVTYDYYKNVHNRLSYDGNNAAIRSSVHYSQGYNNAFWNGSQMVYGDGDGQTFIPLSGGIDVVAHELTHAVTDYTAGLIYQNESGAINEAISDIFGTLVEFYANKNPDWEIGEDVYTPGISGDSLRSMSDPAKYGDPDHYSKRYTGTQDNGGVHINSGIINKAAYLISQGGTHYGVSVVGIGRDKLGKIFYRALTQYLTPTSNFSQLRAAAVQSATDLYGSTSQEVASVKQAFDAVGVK
Briefly: Inhibitory activity against thermolysin.

For assay [2], the target named is T1, Thermolysin. Briefly: Inhibitory activity against thermolysin using N-[3-(2-furyl)acryloyl]-Gly-l-leucineamide (FA-Gly-l-Leu-NH2) as substrate.
Assay [3] in a line: Ratio of Km to that of Kcat against thermolysin.

Each structure is given as a SMILES string.

As usually defined, the Ki is a measure of affinity in units of concentration, obtained from inhibition or displacement. Consider `CC(C)C[C@H](CN(O)C=O)C(=O)NC(=O)CN`, for which the Ki at Thermolysin [1] stood at 10.9 µM; at Thermolysin [2], 14.7 µM. For the same molecule, the Km/Kcat in assay [3] was 165 µM/s.
On the same counts, the results for `CC(C)C[C@H](CN(O)C=O)C(=O)NC(=O)[C@@H](N)Cc1ccccc1` are 2.4 µM, 1.84 µM and 20 µM/s.
On the same counts, the results for `CC(C)C[C@H](CN(O)C=O)C(=O)NC(=O)[C@H](C)N` are 10.6 µM, 2.49 µM and 13.6 µM/s.
On the same counts, the results for `CC(C)C[C@H](CN(O)C=O)C(=O)NC(=O)[C@@H](C)N` are 16.6 µM, 383 µM and 3200 µM/s.
For the molecule `CC(C)C[C@H](CN(O)C=O)C(N)=O`, the Ki at Thermolysin [1] turned out to be 20.6 µM; on Thermolysin [2], 52.8 µM. Also, the Km/Kcat in assay [3] is 196 µM/s.
